For 22 compounds, ED50 and IC50 results are on record in patent US20100234395A1, “UREIDE DERIVATIVE AND PHARMACEUTICAL APPLICATION THEREOF” (TORAY INDUSTRIES, INC., priority 2006, published 2010).

The subject of assay [1] is ddY mice. In words: Acetic acid writhing test in mice (analgesic effects). It counts as in vivo. As to conditions: Mus musculus. As for the experimental part: ddY mice were grown for at least 16 hours under fasting conditions while free water intake was allowed, and a solution of the test compound or a solvent was orally administered thereto (0.1 ml/10 g). As a solvent for a solution of the test compound, dimethyl sulfoxide (DMSO):Tween 80:27% hydroxypropyl-P-cyclodextrin (hereafter abbreviated to “HP-β-CD”) (1:1:8) or 27% HP-β-CD was used. A solution of 0.6% acetic acid (0.1 ml/10 g) was administered intraperitoneally 45 minutes after administration to induce a writhing reaction (i.e., a movement of stretching or arching the body). The number of the writhing reactions that had occurred for the period from 10 minutes after administration of the acetic acid solution to 10 minutes thereafter was counted, and the number of times was designated as an indicator of pain. The number of times of reactions in the group to which a solvent had been administered was designated as 100%, and the concentration of the test compound that had inhibited 50% of such reaction was designated as the ED50 value.
The compound of Reference Example 78 is disclosed in the claims of JP Patent Publication (kohyo) No. 2006-517535 A, the compounds of Reference Examples 93 and 199 are disclosed in the claims of JP Patent No. 3003148, and the compound of Reference Example 103 is disclosed in the claims of JP Patent Publication (kohyo) No. 2006-514095 A. Thus, these compounds were compared with the compounds of the present invention having similar structures in terms of analgesic effects with oral administration (Table 4) or subcutaneous administration (Table 5). Dimethyl sulfoxide (DMSO):Tween 80:27% HP-β-CD (1:1:8) or 27% HP-β-CD was used as a solvent for the test compound.
(In general: In writhing tests, fewer writhes than in controls are read as antinociception.)

The target in assay [2] is T1, COX-2 (Homo sapiens, UniProt P35354).
T1 construct: Human blood that had been sampled with the use of heparin (19 units/ml) was used; from tissue; host or cells: human whole blood (heparinised), aspirin-pretreated, stimulated with lipopolysaccharide
T1 sequence (P35354 18-604): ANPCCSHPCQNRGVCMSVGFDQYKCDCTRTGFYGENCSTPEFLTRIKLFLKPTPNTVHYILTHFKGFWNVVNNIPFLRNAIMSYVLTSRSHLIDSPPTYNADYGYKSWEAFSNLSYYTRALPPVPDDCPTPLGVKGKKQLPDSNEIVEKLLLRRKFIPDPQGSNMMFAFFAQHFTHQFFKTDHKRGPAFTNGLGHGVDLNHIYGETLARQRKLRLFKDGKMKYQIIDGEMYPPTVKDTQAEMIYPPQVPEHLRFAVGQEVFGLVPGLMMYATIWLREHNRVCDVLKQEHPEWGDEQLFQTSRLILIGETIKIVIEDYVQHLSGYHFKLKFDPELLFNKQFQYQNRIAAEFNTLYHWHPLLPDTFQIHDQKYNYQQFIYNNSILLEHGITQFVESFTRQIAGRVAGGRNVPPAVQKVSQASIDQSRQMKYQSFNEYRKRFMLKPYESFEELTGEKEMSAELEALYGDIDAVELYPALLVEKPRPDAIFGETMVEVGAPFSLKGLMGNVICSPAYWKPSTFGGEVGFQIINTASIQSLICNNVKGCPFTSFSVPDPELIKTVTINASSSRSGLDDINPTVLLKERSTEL
Nature of the assay: Activity of inhibiting COX-2 in human blood (prostaglandin E2 after lipopolysaccharide). It counts as cell-based. The note with it: prostaglandin E2 production. On the procedure:
Human blood that had been sampled with the use of heparin (19 units/ml) was used. Blood was fractionated to reaction tubes in amounts of 500 μl, aspirin (12 μg/ml) was added thereto, and the resultants were incubated at 37° C. for 6 hours. Thereafter, the test compound or solvent, and lipopolysaccharide (10 μg/ml) were added, and the reaction was allowed to proceed for 18 hours. After the completion of the reaction, the supernatant (blood plasma) was recovered via centrifugation at 4° C., and the amount of prostaglandin E2 in the plasma was quantified using a kit (514010, Cayman Chemical). Dimethyl sulfoxide (DMSO) was used as a solvent for the test compound. The amount of prostaglandin E2 produced via the addition of lipopolysaccharide was designated as 100%, and the concentration of the test compound that inhibits 50% of such reaction was represented by the IC50 value.

In assay [3] the target is T2, COX-1 (Homo sapiens, UniProt P23219).
T2 construct: Human blood that had been sampled with the use of heparin (19 units/ml) was used; from tissue; host or cells: human whole blood (heparinised)
Nature of the assay: Activity of inhibiting COX-1 in human blood (thromboxane B2 after ionomycin). It counts as cell-based. The note with it: thromboxane B2 production. On the procedure:
Human blood that had been sampled with the use of heparin (19 units/ml) was used. Blood was fractionated to reaction tubes in amounts of 500 μl, the test compound or solvent was added thereto, and the resultants were incubated at 37° C. for 60 minutes. Dimethyl sulfoxide (DMSO) was used as a solvent for the test compound. Thereafter, ionomycin (30 nM) was added, and the reaction was allowed to proceed for 30 minutes. After the completion of the reaction, the supernatant (blood plasma) was recovered via centrifugation at 4° C., and the amount of thromboxane B2 in the plasma was quantified using a kit (519031, Cayman Chemical). The amount of thromboxane B2 produced via the addition of ionomycin was designated as 100%, and the concentration of the test compound that inhibits 50% of such reaction was represented by the IC50 value.

[4] abbreviates: sc, Table 5, subcutaneous administration, read-out: ED50 (mg/kg) [90% confidence limit].
Setting [5] is: oral administration 45 minutes before 0.6% acetic acid i.p., 50% inhibition of writhing reactions, read-out: ED50 (mg/kg)[90% confidence limit].

Like-named read-outs stand apart in the source and are kept apart here. A value given as a limit tells only on which side of the number the result lay.

T2 sequence (P23219 24-599): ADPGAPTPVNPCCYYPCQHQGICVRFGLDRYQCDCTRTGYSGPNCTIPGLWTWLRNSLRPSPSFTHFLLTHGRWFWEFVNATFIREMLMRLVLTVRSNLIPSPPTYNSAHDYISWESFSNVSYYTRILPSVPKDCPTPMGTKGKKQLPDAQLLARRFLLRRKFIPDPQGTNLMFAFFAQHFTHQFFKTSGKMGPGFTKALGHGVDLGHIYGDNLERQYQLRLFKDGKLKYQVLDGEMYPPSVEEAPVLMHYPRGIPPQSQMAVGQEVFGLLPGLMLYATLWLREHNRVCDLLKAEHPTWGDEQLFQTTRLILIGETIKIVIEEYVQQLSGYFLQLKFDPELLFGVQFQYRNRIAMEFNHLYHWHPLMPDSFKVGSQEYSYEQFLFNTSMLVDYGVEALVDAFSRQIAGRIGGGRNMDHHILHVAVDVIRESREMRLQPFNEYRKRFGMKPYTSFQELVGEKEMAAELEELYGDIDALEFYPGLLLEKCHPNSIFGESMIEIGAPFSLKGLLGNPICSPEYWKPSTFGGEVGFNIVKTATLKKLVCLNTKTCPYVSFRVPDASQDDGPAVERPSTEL

As for `COc1ccc(-c2cc(C3CCNCC3)nn2-c2ccc(OC)cc2)cc1` [Reference Example 103, 4-(1,5-Bis(4-methoxyphenyl)-1H-pyrazol-3-yl)piperidine, reference compound], the ED50 in assay [1] (setting [4]) was above 100 mg/kg.
Turning to `COc1ccc(-c2nc(C3(C)CCN(C(=O)N(C)O)CC3)oc2-c2ccc(OC)cc2)cc1` [Example 42, 4-(4,5-Bis(4-methoxyphenyl)oxazol-2-yl)-1-(N-hydroxy-N-methylcarbamoyl)-4-methylpiperidine], the results for the IC50 in assay [2] and in assay [3] were above 10 µM and below 0.1 µM, respectively.
`COc1ccc(-c2cc(C3CCN(C(=O)N(C)O)CC3)oc2-c2ccc(OC)cc2)cc1` [Example 38, 4-(4,5-bis(4-methoxyphenyl)furan-2-yl)-1-(N-hydroxy-N-methylcarbamoyl)piperidine]: the IC50 was above 10 µM in assay [2] and below 0.1 µM in assay [3].
Consider `CNC(=O)N1CCC(c2nc(-c3ccc(OC)cc3)c(-c3ccc(OC)cc3)s2)CC1` [Reference Example1 199, reference compound], for which the ED50 in assay [1] (setting [4]) was 34.4 mg/kg.
The same measure, in the same setting: the value for `COc1ccc(-c2nc(C3CCNCC3)sc2-c2ccc(OC)cc2)cc1` [Reference Example 93, 4-(4,5-Bis(4-methoxyphenyl)thiazol-2-yl)piperidine, reference compound] was above 100 mg/kg.
With `COc1ccc(-c2cc(C3CCN(C(=O)N(C)O)CC3)[nH]c2-c2ccc(OC)cc2)cc1` [Example 34, 4-(4,5-Bis(4-methoxyphenyl)-1H-pyrrol-2-yl)-1-(N-hydroxy-N-methylcarbamoyl)piperidine], the IC50 in assay [2] was above 10 µM; in assay [3], below 0.1 µM.
`COc1ccc(-c2nc(C3(C)CCN(C(=O)N(C)O)CC3)sc2-c2ccc(OC)cc2)cc1` [Example 55, 4-(4,5-Bis(4-methoxyphenyl)thiazol-2-yl)-1-(N-hydroxy-N-methylcarbamoyl)-4-methylpiperidine]: the values for the IC50 in assay [2] and in assay [3] were above 10 µM and below 0.1 µM, respectively.
For `COc1ccc(-c2nc(C3CCN(C(=O)N(O)C4CCCCC4)CC3)oc2-c2ccc(OC)cc2)cc1` [Example 16, 4-(4,5-Bis(4-methoxyphenyl)oxazol-2-yl)-1-(N-cyclohexyl-N-hydroxycarbamoyl)piperidine], the IC50 in assay [2] is above 10 µM; in assay [3], below 0.1 µM.
Taken in the same sequence, the figures for `COc1ccc(-c2cc(C3CC4CCC(C3)N4C(=O)N(C)O)nn2-c2ccc(OC)cc2)cc1` (stereo not shown) [Example 68, 3-(1,5-Bis(4-methoxyphenyl)-1H-pyrazol-3-yl)-8-(N-hydroxy-N-methylcarbamoyl)-8-azabicyclo[3.2.1]octane] were above 10 µM and below 0.1 µM.
Taken in the same sequence, the figures for `COc1ccc(-c2nc(C3CCN(C(=O)N(C)OC)CC3)oc2-c2ccc(OC)cc2)cc1` [Example 24, 4-(4,5-Bis(4-methoxyphenyl)oxazol-2-yl)-1-(N-methoxy-N-methylcarbamoyl)piperidine] were above 10 µM and below 0.1 µM.
Regarding `COc1ccc(-c2nc(C3CCN(C(=O)N(O)C(C)C)CC3)sc2-c2ccc(OC)cc2)cc1` [Example 60, 4-(4,5-Bis(4-methoxyphenyl)thiazol-2-yl)-1-(N-hydroxy-N-isopropylcarbamoyl)piperidine], the IC50 in assay [2] was above 10 µM; in assay [3], below 0.1 µM.
With `COc1ccc(-c2nc(C3CCN(C(=O)N(C)O)CC3)oc2-c2ccc(OCCO)cc2)cc1` [Example 77], the figures for the IC50 in assay [2] and in assay [3] were above 10 µM and below 0.1 µM, respectively.
On to `COc1ccc(-c2nc(C3(c4ccccc4)CCN(C(=O)N(C)O)CC3)oc2-c2ccc(OC)cc2)cc1` [Example 48, 4-(4,5-Bis(4-methoxyphenyl)oxazol-2-yl)-(N-hydroxy-N-methylcarbamoyl)-4-phenylpiperidine], for which the half-inhibitory concentration (IC50) in assay [2] is above 10 µM; in assay [3] it was below 0.1 µM.
As to `COc1ccc(-n2nc(C3CCN(C(=O)N(C)O)CC3)cc2-c2cccnc2OC)cc1` [Example 67, 4-(1-(4-Methoxyphenyl)-5-(2-methoxypyridin-3-yl)-1H-pyrazol-3-yl)-1-(N-hydroxy-N-methylcarbamoyl)piperidine], in assay [1] (setting [5]), the ED50 stood at 2.51 mg/kg.
On to `COc1ccc(-c2cc(C3CCN(C(=O)N(C)O)CC3)sc2-c2ccc(OC)cc2)cc1` [Example 39, 4-(4,5-Bis(4-methoxyphenyl)thiophen-2-yl)-1-(N-hydroxy-N-methylcarbamoyl)piperidine], for which the IC50 in assay [2] was above 10 µM; in assay [3], below 0.1 µM.
`CCCC1(c2nc(-c3ccc(OC)cc3)c(-c3ccc(OC)cc3)o2)CCN(C(=O)N(C)O)CC1` [Example 74, 4-(1,5-Bis(4-methoxyphenyl)oxazol-2-yl)-4-propyl-1-(N-hydroxy-N-methylcarbamoyl)piperidine]: the values for the IC50 in assay [2] and in assay [3] were above 10 µM and below 0.1 µM, respectively.
Taken in the same sequence, the figures for `CCN(O)C(=O)N1CCC(c2nc(-c3ccc(OC)cc3)c(-c3ccc(OC)cc3)o2)CC1` [Example 19, 4-(4,5-Bis(4-methoxyphenyl)oxazol-2-yl)-1-(N-hydroxy-N-ethylcarbamoyl)piperidine] were above 10 µM and below 0.1 µM.
Regarding `COc1ccc(-c2nc(C3CCN(C(=O)N(C)OC)CC3)sc2-c2ccc(OC)cc2)cc1` [Example 61, 4-(4,5-Bis(4-methoxyphenyl)thiazol-2-yl)-1-(N-methoxy-N-methylcarbamoyl)piperidine], the IC50 was above 10 µM in assay [2] and below 0.1 µM in assay [3].
For the compound `CN(O)C(=O)N1CCC(c2nc(-c3ccc(F)cc3)c(-c3ccccc3)o2)CC1` [Example 13, 4-(4-(4-Fluorophenyl)-5-phenyloxazol-2-yl)-1-(N-hydroxy-N-methylcarbamoyl)piperidine], in assay [1] (setting [5]), the ED50 came out at 2.62 mg/kg.
`COc1ccc(-c2nc(C3CCN(C(=O)N(O)C(C)C)CC3)oc2-c2ccc(OC)cc2)cc1` [Example 15, 4-(4,5-Bis(4-methoxyphenyl)oxazol-2-yl)-1-(N-isopropyl-N-hydroxycarbamoyl)piperidine]: the IC50 in assay [2] was above 10 µM; in assay [3], below 0.1 µM.
`COc1ccc(-c2nc(N3CCN(C(=O)N(C)O)CC3)sc2-c2ccc(OC)cc2)cc1` [Example 57, 4-(4,5-Bis(4-methoxyphenyl)thiazol-2-yl)-1-(N-hydroxy-N-methylcarbamoyl)piperazine]: the ED50 in assay [1] (setting [5]) was determined as 9.79 mg/kg.
For the compound `COc1ccc(-c2nc(C3CCNCC3)oc2-c2ccc(OC)cc2)cc1` [Reference Example 78, 4-(4,5-Bis(4-methoxyphenyl)oxazol-2-yl)piperidine, reference compound], the ED50 in assay [1] (Table 4, oral administration, comparison with similar known compound, read-out: ED50 (mg/kg) [90% confidence limit]) is above 100 mg/kg.

As a reminder, the IC50 is the concentration needed to halve the response being measured. A lower IC50 goes with inhibition by little substance.
